We go through six compounds from ChEMBL document CHEMBL6074699, “Innovative Cancer Therapies: Targeting Oncogenic Pathways through Placental Immunology, PROTAC Technology, and Kinase Degradation” (ACS Med Chem Lett, 2024).

Structures are written as SMILES. Bounds are passed on as bounds.

Assay type in all cases: cell-based
In assay [1] the test system is Calu-1. The assay can be described thus: PROTAC activity at DDB1/CyclinD1 in human Calu-1 cells assessed as induction of cyclin D1 degradation at 400 nM incubated for 16 hrs relative to control.
The subject of assay [2] is Calu-1. In words: PROTAC activity at DDB1/CyclinD1 in human Calu-1 cells assessed as induction of cyclin D1 degradation at 40 nM incubated for 16 hrs relative to control.
Assay [3] relates to Calu-1. In words: PROTAC activity at DDB1/CDK4 in human Calu-1 cells assessed as induction of CDK4 degradation at 400 nM incubated for 16 hrs relative to control.
Assay [4] relates to Calu-1. The assay can be described thus: PROTAC activity at DDB1/CDK4 in human Calu-1 cells assessed as induction of CDK4 degradation at 40 nM incubated for 16 hrs relative to control.

In the case of `CC(=O)c1c(C)c2cnc(Nc3ccc(N4CCN(CC(=O)NCCCCCCCNc5nc(C)ccc5C(=O)Nc5ccc(C)c(C6CC6)n5)CC4)cn3)nc2n(C2CCCC2)c1=O`, the Activity is > 80% with Calu-1 [1], > 80% in the assay on Calu-1 [2], > 80% in the assay on Calu-1 [3] and < 80% in the assay with Calu-1 [4].

On to `CNc1ccc(C(=O)Nc2ccc(N(C)C)nn2)c(NCCCCC(C)NC(=O)CN2CCN(c3ccc(Nc4ncc5c(C)c(C(C)=O)c(=O)n(C6CCCC6)c5n4)nc3)CC2)n1` (centres undefined), for which the Activity in the assay with Calu-1 [1], in the assay on Calu-1 [2], with Calu-1 [3] and in the assay with Calu-1 [4] was > 80% throughout.

As for `CNc1ccc(C(=O)Nc2ccc(N(C)C)nn2)c(NCCCCNC(=O)CCN2CCN(c3ccc(Nc4ncc5c(C)c(C(C)=O)c(=O)n(C6CCCC6)c5n4)nc3)CC2)n1`, the Activity in the assay on Calu-1 [1] was > 80%; with Calu-1 [2] it was > 80%; with Calu-1 [3] it was < 80%; in the assay with Calu-1 [4] it was < 80%.

As for `CC(=O)c1c(C)c2cnc(Nc3ccc(N4CCN(CC(=O)NCCCCCNc5nc(C6CC6)ccc5C(=O)Nc5ccc(N(C)C)nn5)CC4)cn3)nc2n(C2CCCC2)c1=O`, the Activity in the assay with Calu-1 [1], with Calu-1 [2], with Calu-1 [3] and in the assay on Calu-1 [4] was > 80% each time.

Take `CC(=O)c1c(C)c2cnc(Nc3ccc(N4CCN(CC(=O)NCCCCCCCNc5nc(C)ccc5C(=O)Nc5ccc(N(C)C)nn5)CC4)cn3)nc2n(C2CCCC2)c1=O`: the Activity in the assay on Calu-1 [1] was > 80%; in the assay with Calu-1 [2], > 80%; in the assay with Calu-1 [3] it was > 80%; with Calu-1 [4] it was < 80%.

`COc1ccc(NC(=O)c2ccc(C)nc2NCCCCCCCNC(=O)CN2CCN(c3ccc(Nc4ncc5c(C)c(C(C)=O)c(=O)n(C6CCCC6)c5n4)nc3)CC2)nn1`: the Activity in the assay on Calu-1 [1] is > 80%; in the assay on Calu-1 [2] it was > 80%; with Calu-1 [3], > 80%; in the assay with Calu-1 [4], < 80%.
